How the values were obtained:
IKZF1 = target: T1, IKZF1 (Homo sapiens, UniProt Q13422+Q96SW2); test: HEK293 HiBiT in vitro degradation of IKZF1; assay type: cell-based; conditions: for DC50 / IKZF1 Dmax: HEK293 HiBiT; for DC50: 18-24 hr incubation, normalized to DMSO control, read-out: IKZF1 EC50; for Dmax: HEK293, HEK293 HiBiT; for Dmax / IKZF1 Dmax: maximum degradation at the highest concentration tested
T1 construct: expressed in transfected cells
Experimental: (§1) In vitro degradation of IKZF1, IKZF2, and SALL4 was measured using HiBiT protein tagging and detection technology (Promega).
(§2) HiBit technology was used to develop the quantitative assays to measure the cellular IKZFs level by tagging an 11 amino acid HiBit peptides […] to the protein of interest. Reporter plasmids were generated by fusing a linker sequence ([…]) followed by the HiBit tag at the C-terminus of IKZF1, IKZF2, and SALL4. The fusion fragments were subsequently cloned into pcDNA5 pcDNA™5/FRT/TO plasmids (Thermo Fisher, cat #V652020) downstream of the tetracycline operator. The resulting plasmids were co-transfected with pOG44 Flp-Recombinase Expression Vector (Thermo Fisher, cat #V600520) into Flp-In™ T-REx HEK293 line (Thermo Fisher, cat #R78077) and a stable cell pool was selected by adding 100 µg/ml of Hygromycin (Thermo Fisher, cat #10687010). The reporter cell enabled Tet-On inducible reporter expression from a single copy of the integrated gene.
(§3) On Day 1, Cells were grown to ˜80% confluency in tissue culture medium (DMEM Glutamax (Gibco10569), 10% Tet free FBS (Takara 631106), and PenStrep Glutamin (Gibco 10378)) in tissue culture flasks. Doxycycline was then added to a final concentration of […] to induce reporter expression at 37° C. overnight.
(§4) On Day 2, 125 nL of serially-diluted solution of testing compounds were dispensed into 384-well white solid assay plates via ECHO acoustic liquid handler. Cells were lifted by 0.25% Trypsin (Gibco 25200) then pelleted by centrifugation (Beckman Avanti J-E) at 500×g for 5 min. Cell pellets were resuspended in TC medium at the concentration of 3e5/mL and 25 μL of cell suspension were added into each well of compound-spotted plates. The plates were returned to a 37° C. incubator overnight (18-24 hr).
(§5) On Day 3, assay plates were removed from the tissue culture incubator and 25 μL of Nano-Glo lytic detection system (Promega, cat #N3030) was added to each well. Plates were incubated at r.t. for 3 min with shaking, and luminescence was read using an Envision reader (Perkin Elmer).
(§6) To assess the IKZF1, IKZF2, and SALL4 degrader potential of exemplified compounds of this disclosure and certain Reference Compounds EC50 and Dmax values were determined for the compounds of Examples 1 to 383 and Reference Compounds A-1, B-1, B-2, B-3, B-4, and C-1 in the HiBiT assays. Asterisks (*) indicate examples for which the data shown represents an average of n≥3.

IKZF2 = IKZF2 (Homo sapiens, UniProt Q96SW2+Q9UKS7); test: HEK293 HiBiT in vitro degradation of IKZF2; assay type: cell-based; set-up: expressed in transfected cells; conditions: for Dmax: HEK293, HEK293 HiBiT; for Dmax / IKZF2 Dmax: maximum degradation at the highest concentration tested; for DC50 / IKZF2 Dmax: HEK293 HiBiT; for DC50: 18-24 hr incubation, normalized to DMSO control, read-out: IKZF2 EC50
Experimental: as §1, §2, §3, §4, §5, §6

Sequence of IKZF2 (Q9UKS7 1-500 isoform Q9UKS7-2): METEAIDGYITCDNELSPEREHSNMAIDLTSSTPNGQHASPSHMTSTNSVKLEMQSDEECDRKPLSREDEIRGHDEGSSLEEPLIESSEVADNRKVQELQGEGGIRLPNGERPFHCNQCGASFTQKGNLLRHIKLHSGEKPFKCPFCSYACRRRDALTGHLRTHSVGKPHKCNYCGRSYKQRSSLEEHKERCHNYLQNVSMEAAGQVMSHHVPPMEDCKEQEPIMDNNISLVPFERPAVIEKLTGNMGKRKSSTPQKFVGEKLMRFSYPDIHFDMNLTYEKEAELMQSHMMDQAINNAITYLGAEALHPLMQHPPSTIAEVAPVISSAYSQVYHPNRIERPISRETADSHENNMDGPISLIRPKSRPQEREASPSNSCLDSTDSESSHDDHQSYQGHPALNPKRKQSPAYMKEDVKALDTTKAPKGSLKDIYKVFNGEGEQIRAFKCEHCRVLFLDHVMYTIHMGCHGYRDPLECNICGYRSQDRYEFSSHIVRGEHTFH
Sequence of IKZF2 (Q96SW2 whole entry): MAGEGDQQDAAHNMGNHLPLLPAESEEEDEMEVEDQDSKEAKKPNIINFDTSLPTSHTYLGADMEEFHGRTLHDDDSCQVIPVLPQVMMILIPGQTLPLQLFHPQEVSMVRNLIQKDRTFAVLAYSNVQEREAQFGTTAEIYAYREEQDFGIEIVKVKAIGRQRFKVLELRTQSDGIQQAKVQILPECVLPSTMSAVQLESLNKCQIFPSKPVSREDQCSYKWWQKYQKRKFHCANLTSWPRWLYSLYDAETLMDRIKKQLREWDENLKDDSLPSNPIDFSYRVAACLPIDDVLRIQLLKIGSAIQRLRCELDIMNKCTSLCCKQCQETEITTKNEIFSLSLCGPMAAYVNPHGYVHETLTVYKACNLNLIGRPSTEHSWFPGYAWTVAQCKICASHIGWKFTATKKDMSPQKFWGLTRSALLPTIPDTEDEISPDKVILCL
Sequence of IKZF2 (Q16531 whole entry partner): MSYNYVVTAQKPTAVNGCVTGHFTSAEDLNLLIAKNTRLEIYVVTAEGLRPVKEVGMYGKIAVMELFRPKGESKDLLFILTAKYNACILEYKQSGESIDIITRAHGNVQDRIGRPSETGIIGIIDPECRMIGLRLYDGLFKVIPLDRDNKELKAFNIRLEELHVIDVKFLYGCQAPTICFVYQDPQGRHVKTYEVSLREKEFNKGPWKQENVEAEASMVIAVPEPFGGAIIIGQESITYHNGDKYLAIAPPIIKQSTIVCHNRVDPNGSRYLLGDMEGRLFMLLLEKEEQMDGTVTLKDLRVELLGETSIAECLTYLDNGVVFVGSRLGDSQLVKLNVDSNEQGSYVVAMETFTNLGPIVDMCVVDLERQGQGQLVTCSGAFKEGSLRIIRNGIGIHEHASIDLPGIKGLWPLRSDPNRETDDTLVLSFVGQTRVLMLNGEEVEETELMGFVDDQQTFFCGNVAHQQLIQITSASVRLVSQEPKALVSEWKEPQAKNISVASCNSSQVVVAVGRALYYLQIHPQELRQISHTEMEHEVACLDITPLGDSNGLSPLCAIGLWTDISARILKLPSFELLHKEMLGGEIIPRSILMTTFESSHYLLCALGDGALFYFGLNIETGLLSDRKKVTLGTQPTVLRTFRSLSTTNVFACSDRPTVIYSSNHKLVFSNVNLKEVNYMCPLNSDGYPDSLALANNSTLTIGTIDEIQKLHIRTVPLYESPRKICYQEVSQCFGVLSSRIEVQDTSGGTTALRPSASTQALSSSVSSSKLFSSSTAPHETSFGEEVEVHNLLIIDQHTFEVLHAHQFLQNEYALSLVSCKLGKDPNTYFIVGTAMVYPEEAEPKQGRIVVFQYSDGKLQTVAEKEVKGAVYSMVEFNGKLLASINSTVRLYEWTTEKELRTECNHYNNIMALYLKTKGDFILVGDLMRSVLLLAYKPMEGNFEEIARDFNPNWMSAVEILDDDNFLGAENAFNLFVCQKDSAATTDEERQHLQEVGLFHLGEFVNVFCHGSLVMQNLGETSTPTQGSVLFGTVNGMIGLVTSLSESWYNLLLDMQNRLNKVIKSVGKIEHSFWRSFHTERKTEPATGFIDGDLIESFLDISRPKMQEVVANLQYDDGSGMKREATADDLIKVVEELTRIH
T1 sequence (Q13422 whole entry): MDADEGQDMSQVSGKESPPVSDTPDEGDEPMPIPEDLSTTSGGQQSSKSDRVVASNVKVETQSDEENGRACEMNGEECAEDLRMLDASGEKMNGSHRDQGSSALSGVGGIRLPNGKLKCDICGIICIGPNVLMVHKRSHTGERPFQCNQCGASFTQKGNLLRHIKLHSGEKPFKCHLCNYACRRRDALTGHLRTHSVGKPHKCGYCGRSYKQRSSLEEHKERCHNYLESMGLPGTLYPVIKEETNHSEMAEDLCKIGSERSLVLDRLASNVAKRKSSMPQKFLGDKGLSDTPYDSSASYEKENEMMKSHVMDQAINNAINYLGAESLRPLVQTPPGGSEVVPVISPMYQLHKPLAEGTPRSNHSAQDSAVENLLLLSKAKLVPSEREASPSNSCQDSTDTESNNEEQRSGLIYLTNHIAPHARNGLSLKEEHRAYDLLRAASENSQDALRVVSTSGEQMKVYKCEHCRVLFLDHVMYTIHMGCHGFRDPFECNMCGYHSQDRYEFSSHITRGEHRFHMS
T1 sequence (Q96SW2 whole entry): as the sequence (Q96SW2 whole entry) above
T1 sequence (Q16531 whole entry partner): as the sequence (Q16531 whole entry partner) above

Row | DC50 (IKZF1) | Dmax (IKZF2) | DC50 (IKZF2) | Dmax (IKZF1) | IKZF1 Dmax (IKZF1) | IKZF2 Dmax (IKZF2) | Compound
1 | > 1000 nM | 82% | 86 nM |  |  |  | C[C@@H]1CCCC[C@H]1N[C@H]1CCCC[C@@H]1Cc1ccc2c(c1)CN(C1CCC(=O)NC1=O)C2=O (relative stereo) [Example 303]
2 |  | 87% |  |  |  |  | [2H]c1c([2H])c([2H])c(CN[C@H]2CCCC[C@@H]2Cc2ccc3c(c2)CN(C2CCC(=O)NC2=O)C3=O)c([2H])c1[2H] (single isomer, unassigned) [Example 25]
3 | > 1000 nM |  | 41 nM |  |  |  | O=C1CCC(N2Cc3cc(C[C@H]4CCCC[C@@H]4NCc4ccccc4)ccc3C2=O)C(=O)N1 (single isomer, unassigned) [Example 98]
4 |  | 87% |  |  |  |  | [2H]c1c([2H])c([2H])c(C([2H])([2H])N[C@H]2CCCC[C@@H]2Cc2ccc3c(c2)CN(C2CCC(=O)NC2=O)C3=O)c([2H])c1[2H] (single isomer, unassigned) [Example 98]
5 | 100 nM |  | 33 nM |  |  |  | O=C1CCC(N2Cc3cc(C[C@H]4CCCC[C@@H]4NCc4ccccc4)ccc3C2=O)C(=O)N1 (single isomer, unassigned) [Example 120]
6 |  | 90% |  | 29% |  |  | [2H]c1c([2H])c([2H])c(C([2H])N[C@H]2CCCC[C@@H]2Cc2ccc3c(c2)CN(C2CCC(=O)NC2=O)C3=O)c([2H])c1[2H] (single isomer, unassigned) [Example 120]
7 | > 1000 nM | 87% | 22 nM |  |  |  | O=C1CCC(N2Cc3cc(C[C@H]4CCC[C@H](O)[C@@H]4NC4CCC(F)(F)CC4)ccc3C2=O)C(=O)N1 (single isomer, unassigned) [Example 151]
8 | 17 nM | 93% | 14 nM | 84% |  |  | CC(N[C@H]1CCCC[C@@H]1Cc1ccc2c(c1)CN(C1CCC(=O)NC1=O)C2=O)C(C)(C)F (single isomer, unassigned) [Example 226]
9 | > 500 nM |  | 20 nM |  |  | 86% | CC(N[C@H]1CCCC[C@@H]1Cc1ccc2c(c1)CN(C1CCC(=O)NC1=O)C2=O)C(C)(C)F (single isomer, unassigned) [Example 227]
10 | > 1000 nM | 93% | 21 nM |  |  |  | CCC(N[C@H]1CCCC[C@@H]1Cc1ccc2c(c1)CN(C1CCC(=O)NC1=O)C2=O)C1CC1 (single isomer, unassigned) [Example 232]
11 | > 1000 nM |  | 3 nM |  |  | 97% | CCC(N[C@H]1CCCC[C@@H]1Cc1ccc2c(c1)CN(C1CCC(=O)NC1=O)C2=O)C1CC1 (single isomer, unassigned) [Example 233]
12 | > 1000 nM | 97% | 4 nM |  |  |  | CC(CC(F)(F)F)N[C@H]1CCCC[C@@H]1Cc1ccc2c(c1)CN(C1CCC(=O)NC1=O)C2=O (single isomer, unassigned) [Example 249]
13 | 78 nM | 97% | 4 nM | 30% |  |  | CC1(C)CCC(N[C@H]2CCCO[C@@H]2Cc2ccc3c(c2F)CN(C2CCC(=O)NC2=O)C3=O)C1 (single isomer, unassigned) [Example 258]

Further lines, the molecule ahead of its results:

Row | Compound | DC50 (IKZF1) | Dmax (IKZF2) | DC50 (IKZF2) | Dmax (IKZF1) | IKZF1 Dmax (IKZF1) | IKZF2 Dmax (IKZF2)
14 | O=C1CCC(N2Cc3cc(C[C@H]4CCCC[C@@H]4N[C@@H]4CCC(F)(F)C4)ccc3C2=O)C(=O)N1 (relative stereo) [Example 302, 3-(5-(((1R,2S)-rel-2-(((R)-3,3-difluorocyclopentyl)amino)cyclohexyl)methyl)-1-oxoisoindolin-2-yl)piperidine-2,6-dione] | > 1000 nM | 89% | 15 nM |  |  | 
15 | O=C1CCC(N2Cc3cc(C[C@H]4CCC[C@H](O)[C@@H]4NC4CCCCC4)ccc3C2=O)C(=O)N1 (relative stereo) [Example 310, 3-(5-(((1R,2R,3S)-rel-2-(cyclohexylamino)-3-hydroxycyclohexyl)methyl)-1-oxoisoindolin-2-yl)piperidine-2,6-dione] | > 500 nM | 90% | 27 nM |  |  | 
16 | O=C1CCC(N2Cc3cc(C[C@H]4CCCC[C@@H]4NCc4ccccc4)ccc3C2=O)C(=O)N1 (single isomer, unassigned) [Example 25] | > 1000 nM |  | 23 nM |  |  | 
17 | O=C1CCC(N2Cc3cc(C[C@H]4CCCC[C@@H]4NCc4ccccc4)ccc3C2=O)C(=O)N1 (single isomer, unassigned) [Example 97] | 85 nM |  | 36 nM |  |  | 
18 | [2H]C([2H])(N[C@H]1CCCC[C@@H]1Cc1ccc2c(c1)CN(C1CCC(=O)NC1=O)C2=O)c1ccccc1 (single isomer, unassigned) [Example 97] |  | 92% |  | 30% |  | 
19 | O=C1CCC(N2Cc3cc(C[C@H]4CCCC[C@@H]4NC4CCC(C(F)(F)F)CC4)ccc3C2=O)C(=O)N1 (single isomer, unassigned) [Example 121] | 68 nM | 97% | 3 nM | 26% |  | 
20 | O=C1CCC(N2Cc3cc(C[C@H]4CCCC[C@@H]4NC4CCC(OC(F)(F)F)CC4)ccc3C2=O)C(=O)N1 (single isomer, unassigned) [Example 146] | 168 nM |  | 2 nM |  | 34% | 95%
21 | CC(C)OC1CCC(N[C@H]2CCCC[C@@H]2Cc2ccc3c(c2)CN(C2CCC(=O)NC2=O)C3=O)CC1 (single isomer, unassigned) [Example 167] | 77 nM | 97% | 2 nM | 36% |  | 
22 | CC(C)OC1CCC(N[C@H]2CCCC[C@@H]2Cc2ccc3c(c2)CN(C2CCC(=O)NC2=O)C3=O)CC1 (single isomer, unassigned) [Example 168] | 246 nM |  | 3 nM |  | 39% | 97%
23 | CC(N[C@H]1CCCC[C@@H]1Cc1ccc2c(c1)CN(C1CCC(=O)NC1=O)C2=O)C1(F)CC1 (single isomer, unassigned) [Example 224] | > 1000 nM | 96% | 2 nM |  |  | 
24 | CC(N[C@H]1CCCC[C@@H]1Cc1ccc2c(c1)CN(C1CCC(=O)NC1=O)C2=O)C1(F)CC1 (single isomer, unassigned) [Example 225] | > 500 nM |  | 11 nM |  |  | 94%
25 | CC(CC1CC1)N[C@H]1CCCC[C@@H]1Cc1ccc2c(c1)CN(C1CCC(=O)NC1=O)C2=O (single isomer, unassigned) [Example 230] | 66 nM | 96% | 3 nM | 30% |  | 
26 | CC(CC1CC1)N[C@H]1CCCC[C@@H]1Cc1ccc2c(c1)CN(C1CCC(=O)NC1=O)C2=O (single isomer, unassigned) [Example 231] | > 1000 nM |  | 3 nM |  |  | 96%
27 | CC(N[C@H]1CCCO[C@@H]1Cc1ccc2c(c1F)CN(C1CCC(=O)NC1=O)C2=O)C1CCC1 (single isomer, unassigned) [Example 248] | > 1000 nM |  | 21 nM |  |  | 92%
28 | CC(N[C@H]1CCCC[C@@H]1Cc1ccc2c(c1)CN(C1CCC(=O)NC1=O)C2=O)C1CCCO1 (single isomer, unassigned) [Example 253] | > 1000 nM | 96% | 9 nM |  |  | 
29 | CC(N[C@H]1CCCC[C@@H]1Cc1ccc2c(c1)CN(C1CCC(=O)NC1=O)C2=O)C1CCCO1 (single isomer, unassigned) [Example 254] | > 1000 nM |  | 33 nM |  |  | 84%
30 | CC(N[C@H]1CCCC[C@@H]1Cc1ccc2c(c1)CN(C1CCC(=O)NC1=O)C2=O)C1(C#N)CC1 (single isomer, unassigned) [Example 255] | > 1000 nM |  | 32 nM |  |  | 87%
31 | CC1(C)CCC(N[C@H]2CCCO[C@@H]2Cc2ccc3c(c2F)CN(C2CCC(=O)NC2=O)C3=O)C1 (single isomer, unassigned) [Example 259] | 68 nM |  | 11 nM |  | 25% | 96%
32 | O=C1CCC(N2Cc3cc(C[C@H]4CCCC[C@@H]4NC4CCCOC4)ccc3C2=O)C(=O)N1 (single isomer, unassigned) [Example 260] | > 1000 nM | 96% | 5 nM |  |  | 
